Reference: patent US6900225B2, “Quinolonecarboxylic acid derivative” (Daiichi Pharmaceutical Co., Ltd., priority 2001, dated 2005)
Converted amounts (≈) assume the structure as drawn. “Also recorded” adds a separate entry of the source. Counter-ions that a name gives are not always drawn.

Key:
Slc:ddY mice = assay: Central toxicity after cisternal administration, alone or combined with biphenylacetic acid; format: in vivo; conditions: 5 μg/mouse
Method: Slc:ddY mice (male; 3 weeks old) were used in groups of ten. Compound (1) was dissolved in distilled water in order to prepare injections, and the resultant solution was cisternally administered in a volume of […]. To the members of the group where compound (1) and biphenylacetic acid were used in combination, biphenylacetic acid (400 mg/kg) was perorally administered first, and 30 minutes following the administration, compound (1) was cisternally administered in a manner similar to that employed for the single use of compound (1).

E. coli, NIHJ = assay: Antibacterial activity (MIC), Japanese Society of Chemotherapy standard method; format: cell-based; conditions: Escherichia coli
Method: (§1) Antibacterial activity was investigated by comparing compound (1) with comparative compounds B and C (see next page). This test was performed according to the standard method recommended by Japanese Society of Chemotherapy.

Pr. vulgaris, 08601 = assay: as above; format: cell-based; conditions: Proteus vulgaris
Method: as §1

Ps. aeruginosa, 32104 = assay: as above; format: cell-based; conditions: Pseudomonas aeruginosa
Method: as §1

Ps. aeruginosa, 32121 = assay: as above; format: cell-based; conditions: Pseudomonas aeruginosa
Method: as §1

S. aureus, 209P = assay: as above; format: cell-based; conditions: Staphylococcus aureus
Method: as §1

S. epidermidis, 56500 = assay: as above; format: cell-based; conditions: Staphylococcus epidermidis
Method: as §1

Ser. marcescens, 10100 = assay: as above; format: cell-based; conditions: Serratia marcescens
Method: as §1

[1] = test system: Str. faecalis, ATCC 19433; assay: as above; format: cell-based; conditions: Enterococcus faecalis, ATCC19433
Method: as §1

[2] = Moisture absorption/desorption (moisture absorption analyzer, weight change at 5-95% RH); format: physicochemical; conditions: 25° C., relative humidity 5-95% RH; monohydrochloride monohydrate
Method: Moisture absorption/desorption of compound (1) was investigated by using samples each weighing approximately 10 mg and a moisture absorption analyzer manufactured by VTI (model SGA-100). The measurement was performed at 25° C., and the relative humidity was changed in the range of 5% to 95% at intervals of 5% or 10%. When the weight change of a sample is 0.03% or less within 30 minutes, the sample is considered to be in a state of equilibrium, and in this test, the longest equilibrium time was set to be 180 minutes. The weight change of each sample at different relative humidities was determined.

Solubility in water = format: physicochemical
Text: Solubility of compound (1) in water was investigated.

[3] = Storage stability for one week (heat, humidity, light), residual amount by liquid chromatography; format: physicochemical
Method: Compound (1) (1.5 mg) was stored for one week under the following conditions: (1) in a sealed bottle at 70° C., (2) in an open-air state at 50° C., 75% RH (NaCl), or (3) irradiation with light at 100,000 lx·h (2,500 lx×40 h). Subsequently, the residual amount of compound (1) was quantitatively determined by means of liquid chromatography.

[4] = test system: arthrodial cartilage of young beagles; assay: Articular toxicity in young beagles, peroral for eight days; format: in vivo; conditions: 7.5 mg/kg, 15 mg/kg and 30 mg/kg
Text: Groups of young beagles (male; 3-4 months old), each group consisting of 3 dogs, were used in the test. Compound (1) was perorally administered to each dog for eight days. Thereafter, important diarthroses were pathologically examined. […] Thus, articular toxicity of compound (1) is quite weak and insignificant, proving that compound (1) is a very safe compound.

Balb/c mice = assay: Phototoxicity: intravenous administration, then UV-A exposure; format: in vivo; conditions: intravenous 100 mg/kg, UV-A 20 J/cm^2 for four hours
Method: Groups of Balb/c mice (female; 5 weeks old), each group consisting of 5-6 mice, were used in the test. After compound (1) was intravenously administered to each mouse, the mouse was exposed to long-wavelength UV light (UV-A) (20 J/cm^2) for four hours. Thereafter, the auricle was visually observed for 96 hours. Subsequently the mouse was sacrificed for examination of the tissue. […] Thus, compound (1) is a very safe compound, being free from phototoxicity, which is often observed with quinolone-based antibacterial agents.

pneumococcus SPI-13 = assay: Therapeutic effect on mouse pneumonia model with pneumococcus of low penicillin sensitivity; format: in vivo; conditions: CBA/J mice
Method: Groups of CBA/J mice, each group consisting of 5 mice, were used in the test. The mice were nasally infected with pneumococcus SPI-13 at 5.3×10^6 CFU/mouse. Compound (1) was subcutaneously administered to each mouse at doses of 7.5 mg/kg, 15 mg/kg, or 30 mg/kg, for three consecutive days from the day following infection, twice a day at an interval of 6 hours. The efficacy of compound (1) was assessed by counting the number of the intrapulmonary bacteria on the day following the final administration.

[5] = test system: methicillin-resistant Staphylococcus aureus (MRSA) strain 7866; assay: Infection-preventing effect on mouse sepsis model (MRSA); format: in vivo; conditions: Slc:ddY mice, intraperitoneal MRSA 7866 1.07×10^8 CFU/mouse, single tail vein injection
Method: (§2) Groups of Slc:ddY mice, each group consisting of 7 mice, were used in the test. The mice were intraperitoneally inoculated with methicillin-resistant Staphylococcus aureus (MRSA) strain 7866 (1.07×10^8 CFU/mouse) or E. coli strain E77156 (8.08×10^7 CFU/mouse). Compound (1) was given as a single injection into the tail vein of each mouse immediately after infection. On the basis of the survival count on day 7 after infection, 50% efficacy was calculated using the probit method, to thereby evaluate the efficacy.

E. coli strain E77156 = assay: Infection-preventing effect on mouse sepsis model (E. coli); format: in vivo; conditions: Slc:ddY mice, intraperitoneal E. coli E77156 8.08×10^7 CFU/mouse, single tail vein injection
Method: as §2

[6] = Stability of acid addition salts of compound (1a) under various levels of humidity; conditions: high-humidity conditions
[7] = combined: biphenylacetic acid 400 mg/kg perorally 30 minutes before cisternal administration
[8] = solo cisternal administration, groups of ten

Row | MIC (E. coli, NIHJ) | MIC (Pr. vulgaris, 08601) | MIC (Ps. aeruginosa, 32104) | MIC (Ps. aeruginosa, 32121) | MIC (S. aureus, 209P) | MIC (S. epidermidis, 56500) | MIC (Ser. marcescens, 10100) | MIC [1] | SMILES | Death (Slc:ddY mice; [7]) | Death (Slc:ddY mice; [8]) | Spasm (Slc:ddY mice; [8]) | further results
1 |  |  |  |  |  |  |  |  | COc1c(N2C[C@@H](N)[C@@H](C)C2)c(F)cc2c(=O)c(C(=O)O)cn([C@@H]3C[C@@H]3F)c12 [Comparative Compound A, reference compound] | two | one | two | 
2 | 0.006 µg/mL (≈ 0.0143 µM) | 0.05 µg/mL (≈ 0.119 µM) | 0.39 µg/mL (≈ 0.93 µM) | 0.2 µg/mL (≈ 0.477 µM) | 0.025 µg/mL (≈ 0.0596 µM) | 0.1 µg/mL (≈ 0.238 µM) | 0.2 µg/mL (≈ 0.477 µM) | 0.2 µg/mL (≈ 0.477 µM) | CCOc1c(N2C[C@@H](N)C3(CC3)C2)c(F)cc2c(=O)c(C(=O)O)cn([C@@H]3C[C@@H]3F)c12 [Comparative Compound B] |  |  |  | 
3 | 0.025 µg/mL (≈ 0.0614 µM) | 0.05 µg/mL (≈ 0.123 µM) | 0.78 µg/mL (≈ 1.91 µM) | 0.39 µg/mL (≈ 0.957 µM) | 0.05 µg/mL (≈ 0.123 µM) | 0.2 µg/mL (≈ 0.491 µM) | 0.2 µg/mL (≈ 0.491 µM) | 0.39 µg/mL (≈ 0.957 µM) | CCOc1c(N2CC(C)C(N)C2)c(F)cc2c(=O)c(C(=O)O)cn([C@@H]3C[C@@H]3F)c12 (stereo partly shown) [Comparative Compound C] |  |  |  | 
4 |  |  |  |  |  |  |  |  | COc1c(N2C[C@@H](N)C3(CC3)C2)c(F)cc2c(=O)c(C(=O)O)cn([C@@H]3C[C@@H]3F)c12.CS(=O)(=O)O [methanesulfonic acid salt, Methanesulfonic Acid Salt of (−)-7-{(7S)-7-amino-5-azaspiro[2.4]heptan-5-yl}-6-fluoro-1-[(1R, 2S)-2-fluoro-1-cyclopropyl]-1,4-dihydro-8-methoxy-4-oxo-3-quinolinecarboxylic acid] |  |  |  | Stability under various levels of humidity [6]: tendency toward moisture absorption

Row | SMILES | MIC (E. coli, NIHJ) | MIC (Pr. vulgaris, 08601) | MIC (Ps. aeruginosa, 32104) | MIC (Ps. aeruginosa, 32121) | MIC (S. aureus, 209P) | MIC (S. epidermidis, 56500) | MIC (Ser. marcescens, 10100) | MIC [1] | Death (Slc:ddY mice; [7]) | Death (Slc:ddY mice; [8]) | Spasm (Slc:ddY mice; [8]) | further results
5 | COc1c(N2C[C@@H](N)C3(CC3)C2)c(F)cc2c(=O)c(C(=O)O)cn([C@@H]3C[C@@H]3F)c12 [Compound (1), (−)-7-[(7S)-7-amino-5-azaspiro[2.4]heptan-5-yl]-6-fluoro-1-[(1R, 2S)-2-fluoro-1-cyclopropyl]-1,4-dihydro-8-methoxy-4-oxo-3-quinolinecarboxylic acid monohydrochloride monohydrate] | ≤ 0.003 µg/mL | 0.012 µg/mL | 0.2 µg/mL | 0.05 µg/mL | 0.006 µg/mL | 0.05 µg/mL | 0.05 µg/mL | 0.1 µg/mL | neither spasm nor death | neither spasm nor death | neither spasm nor death | Moisture absorption/desorption (weight change) [2]: neither absorbing or desorbing moisture; also recorded: do not absorb or desorb moisture; solubility (Solubility in water): ≥ 100 mg/mL; Stability when exposed to light, compared with compound No. 26bb ([3]; light 100,000 lx·h (2,500 lx×40 h)): superior to that of compound No. 26bb; Stability (residual amount by liquid chromatography) ([3]; one week: sealed bottle 70° C., open 50° C., 75% RH, light 100,000 lx·h): remained stable, not undergoing any decomposition; Spasm (Slc:ddY mice; [7]): neither spasm nor death; Formation of blebs or erosions in arthrodial cartilage [4]: not at all observed; Phototoxicity: abnormality of auricle (visual observation 96 hours, tissue examination) (Balb/c mice): no abnormality was observed; Number of intrapulmonary bacteria (pneumococcus SPI-13; subcutaneous 7.5 mg/kg twice a day for three days): approximately half that of the control; Number of intrapulmonary bacteria (pneumococcus SPI-13; subcutaneous 15 mg/kg twice a day for three days): below the detection limit; Number of intrapulmonary bacteria (pneumococcus SPI-13; subcutaneous 30 mg/kg twice a day for three days): below the detection limit; 50% efficacy (probit method, survival count on day 7) [5]: 3.34 mg/kg; 50% efficacy (probit method, survival count on day 7) (E. coli strain E77156): 0.57 mg/kg
